Measured values as given in ChEMBL document CHEMBL3045666, “The phytotoxicity of natural tetramic acid derivatives” (Pest Manag Sci, 2011).
In brackets after ≈: the same amount, converted by molar mass.

Tests used:
Avena fatua [1] = assay: Herbicidal activity against Avena fatua assessed as growth reduction at 3 mg/ha; assay type: functional
Ipomoea hederacea [2] = assay: Herbicidal activity against Ipomoea hederacea (ivy-leaved morning glory) assessed as growth reduction at 3 mg/ha; assay type: functional
Setaria faberi [3] = assay: Herbicidal activity against Setaria faberi (Giant Foxtail) assessed as growth reduction at 3 mg/ha; assay type: functional
Helianthus annuus [4] = assay: Herbicidal activity against Helianthus annuus (sunflower) assessed as growth reduction at 3 mg/ha; assay type: functional
Synechococcus = assay: Antimicrobial activity against cyanobacteria Synechococcus PCC 6911 assessed as growth inhibition; assay type: functional
[5] = Inhibition of PS2 at 50 uM
Lemna minor [6] = assay: Herbicidal activity against Lemna minor (common duckweed) at 50 uM; assay type: functional; conditions: read-out: GI
Tetradesmus obliquus = assay: Antimicrobial activity against Acutodesmus obliquus SAG 276-1 assessed as growth inhibition; assay type: functional
Desmodesmus subspicatus = assay: Antimicrobial activity against Scenedesmus subspicatus SAG 86.81 assessed as growth inhibition; assay type: functional
[7] = Inhibition of PS2 at 100 uM
Lemna minor [8] = assay: Herbicidal activity against Lemna minor (common duckweed) at 100 uM; assay type: functional
Ipomoea hederacea [9] = assay: Herbicidal activity against Ipomoea hederacea (ivy-leaved morning glory) assessed as growth reduction at 1 mg/ha; assay type: functional
Setaria faberi [10] = assay: Herbicidal activity against Setaria faberi (Giant Foxtail) assessed as growth reduction at 1 mg/ha; assay type: functional
Avena fatua [11] = assay: Herbicidal activity against Avena fatua assessed as growth reduction at 1 mg/ha; assay type: functional
Helianthus annuus [12] = assay: Herbicidal activity against Helianthus annuus (sunflower) assessed as growth reduction at 1 mg/ha; assay type: functional

C[C@H]1CCC[C@H]2O[C@@H]2COc2ccc(cc2)C[C@H]2NC(=O)/C(=C/1O)C2=O [MACROCIDIN A]
growth inhibition (GI) (Avena fatua [1]): 0%
growth inhibition (GI) (Ipomoea hederacea [2]): 0%
growth inhibition (GI) (Setaria faberi [3]): 65%
growth inhibition (GI) (Helianthus annuus [4]): 50%

CCCCCC#CC#C/C=C/CC(C)C[C@@H]1C[C@H](C)/C(=C2/C(=O)C(C)N(C)C2=O)N1N (stereo not given in full) [FISCHERELLIN A]
MIC (Synechococcus): 0.5 µM (≈ 0.212 µg/mL)
inhibition [5]: 60%
inhibition of growth at 50 µM (Lemna minor [6]): 44%
MIC (Tetradesmus obliquus): 0.5 µM (≈ 0.212 µg/mL)
MIC (Desmodesmus subspicatus): 0.5 µM (≈ 0.212 µg/mL)
inhibition [7]: 98%
inhibition at 100 µM (Lemna minor [8]): 74%

C[C@@H]1/C(O)=C2/C(=O)N[C@H](Cc3ccc(cc3)OC[C@H]3O[C@@H]3CCC1O)C2=O (stereo not given in full) [MACROCIDIN B]
growth inhibition (GI) (Ipomoea hederacea [9]): 0%
growth inhibition (GI) (Setaria faberi [10]): 20%
growth inhibition (GI) (Avena fatua [11]): 0%
growth inhibition (GI) (Helianthus annuus [12]): 50%
